Laboratory results: US9573957B2 (Boehringer Ingelheim International GmbH, priority 2013, dated 2017)

Assays:
[1] = target: human LTA4 hydrolase (Homo sapiens (Human), UniProt P09960); assay: LTA4H Enzyme assay (peptidase, Arg-AMC cleavage); assay type: biochemical; conditions: LTA4H Enzyme 1 nM, Arg-AMC substrate 50 μM, room temperature 1 h, fluorescence
Procedure, shortened: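 Aminomethylcoumarin release measured fluorimetrically (380/460 nm) after 1 h at room temperature. Reaction: 1 nM final enzyme, 50 μM final Arg-AMC and compound in Tris-HCl pH 7.5 with 100 mM KCl and 0.5% BSA.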

[2] = system: synthesis of LTB4 in human whole blood; assay: LTB4 production inhibition assay in human whole blood (HWB); assay type: cell-based; conditions: heparinized human whole blood, 15 min at 37° C., Calcimycin 20 μM 30 min, plasma LTB4 by HTRF
Procedure, shortened: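 LTB4 in plasma read by HTRF immunoassay after centrifugation. Before that, compound sat with heparinized human whole blood 15 min at 37° C, followed by 30 min at 37° C with 20 μM (final) calcimycin.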

Chain of human LTA4 hydrolase (P09960 whole entry): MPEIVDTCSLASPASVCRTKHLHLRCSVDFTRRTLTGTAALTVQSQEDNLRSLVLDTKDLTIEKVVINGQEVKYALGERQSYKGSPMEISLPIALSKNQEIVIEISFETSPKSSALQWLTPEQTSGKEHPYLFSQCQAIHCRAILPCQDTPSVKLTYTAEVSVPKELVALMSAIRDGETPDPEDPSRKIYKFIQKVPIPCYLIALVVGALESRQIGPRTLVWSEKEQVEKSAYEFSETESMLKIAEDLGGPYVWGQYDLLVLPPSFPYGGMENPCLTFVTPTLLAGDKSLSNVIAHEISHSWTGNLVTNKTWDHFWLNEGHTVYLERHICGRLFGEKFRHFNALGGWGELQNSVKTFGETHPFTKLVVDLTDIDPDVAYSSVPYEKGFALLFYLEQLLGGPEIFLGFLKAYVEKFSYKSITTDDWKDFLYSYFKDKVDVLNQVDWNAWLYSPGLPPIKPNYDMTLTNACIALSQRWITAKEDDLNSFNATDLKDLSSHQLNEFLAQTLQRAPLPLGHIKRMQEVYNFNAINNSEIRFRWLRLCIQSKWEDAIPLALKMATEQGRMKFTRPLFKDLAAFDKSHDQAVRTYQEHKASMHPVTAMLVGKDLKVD

Row | IC50 [1] | IC50 [2] | Structure (SMILES)
1 | 4.6 nM | 560 nM | O=C(CO)N1CCN(CC2Cc3ccc(Oc4ccc(-c5ccn[nH]5)cn4)cc3O2)CC1 (stereo not shown) [Example 65, 2-Hydroxy-1-(4-{6-[5-(2H-pyrazol-3-yl)-pyridin-2-yloxy]-2,3-dihydro-benzofuran-2-ylmethyl}-piperazin-1-yl)-ethanone]
2 | 2.2 nM | 580 nM | CC(C)(O)C(=O)N1CCN(CCC2COc3cc(Oc4ccc(-c5ccn[nH]5)cn4)ccc32)CC1 (stereo not shown) [Example 81, 2-Hydroxy-2-methyl-1-[4-(2-{6-[5-(2H-pyrazol-3-yl)-pyridin-2-yloxy]-2,3-dihydro-benzofuran-3-yl}-ethyl)-piperazin-1-yl]-propan-1-one]
3 | 0.79 nM | 290 nM | CC(=O)N[C@H]1CCN(Cc2ccc3cc(Oc4ccc(-c5ccn[nH]5)cn4)ccc3c2)C1 [Example 13, N-((S)-1-{6-[5-(2H-Pyrazol-3-yl)-pyridin-2-yloxy]-naphthalen-2-ylmethyl}-pyrrolidin-3-yl)-acetamide]
4 | 1.7 nM | 290 nM | O=C1[C@@H](O)CCN1C1CCN(CCC2COc3cc(Oc4ccc(-c5ccn[nH]5)cn4)ccc32)CC1 (stereo partly drawn) [Example 70, (S)-3-Hydroxy-1-[1-(2-{6-[5-(2H-pyrazol-3-yl)-pyridin-2-yloxy]-2,3-dihydro-benzofuran-3-yl}-ethyl)-piperidin-4-yl]-pyrrolidin-2-one]

The remaining lines, values behind:

Row | Structure (SMILES) | IC50 [1] | IC50 [2]
5 | O=C1CCCN1C1CCN(Cc2ccc3cc(Oc4ncc(-c5ccn[nH]5)cn4)ccc3c2)CC1 [Example 36, 1-(1-{6-[5-(2H-Pyrazol-3-yl)-pyrimidin-2-yloxy]-naphthalen-2-ylmethyl}-piperidin-4-yl)-pyrrolidin-2-one] | 1.9 nM | 220 nM
6 | COC(C)(C)C(=O)N1CCN(Cc2ccc3cc(Oc4ccc(-c5ccn[nH]5)cn4)ccc3n2)CC1 [Example 128, 2-Methoxy-2-methyl-1-(4-{6-[5-(2H-pyrazol-3-yl)-pyridin-2-yloxy]-quinolin-2-ylmethyl}-piperazin-1-yl)-propan-1-one] | 0.56 nM | 240 nM
7 | CN(C(=O)CO)[C@H]1CCN(Cc2ccc3cc(Oc4ccc(-c5ccn[nH]5)cn4)ccc3n2)C1 [Example 99] | 0.86 nM | 140 nM
8 | O=C(N1CCN(Cc2ccc3cc(Oc4ccc(-c5ccn[nH]5)cn4)ccc3n2)CC1)C1(O)CCCC1 [Example 119, (1-Hydroxy-cyclopentyl)-(4-{6-[5-(2H-pyrazol-3-yl)-pyridin-2-yloxy]-quinolin-2-ylmethyl}-piperazin-1-yl)-methanone] | 8.6 nM | 1200 nM
9 | OC1CCN(Cc2ccc3cc(Oc4ncc(-c5ccn[nH]5)cn4)ccc3c2)CC1 [Example 26, 1-{6-[5-(2H-Pyrazol-3-yl)-pyrimidin-2-yloxy]-naphthalen-2-ylmethyl}-piperidin-4-ol] | 2.3 nM | 240 nM
10 | O=C1[C@@H](O)CCN1C1CCN(CCc2coc3cc(Oc4ccc(-c5ccn[nH]5)cn4)ccc23)CC1 [Example 73, (S)-3-Hydroxy-1-[1-(2-{6-[5-(2H-pyrazol-3-yl)-pyridin-2-yloxy]-benzofuran-3-yl}-ethyl)-piperidin-4-yl]-pyrrolidin-2-one] | 0.73 nM | 220 nM
11 | CC(C)(O)C(=O)N1CC2CCC(C1)N2Cc1ccc2cc(Oc3ccc(-c4ccn[nH]4)cn3)ccc2n1 [Example 58, 2-Hydroxy-2-methyl-1-(8-{6-[5-(2H-pyrazol-3-yl)-pyridin-2-yloxy]-quinolin-2-ylmethyl}-3,8-diaza-bicyclo[3.2.1]oct-3-yl)-propan-1-one] | 0.45 nM | 120 nM
